The values that follow come from patent US9890327B2, “Phosphorescent transition metal complex, its preparation and use” (City University of Hong Kong, priority 2015, dated 2018).

The conditions of data set [1]: degassed CH3CN solution, λex=355 nm; cited from earlier work.
Data set [2] is described as follows: Reaction kinetics with H2O2 under pseudo first-order conditions, UV-Visible spectroscopy. It counts as physicochemical. Particulars: 298 K. The method, then:
Kinetics experiments for the reactions of metal complex of Formula (IV) with H2O2 were performed under pseudo first-order conditions. Metal complex of Formula (IV) (10 μM) was reacted with H2O2 in a 1:100, 1:200, 1:400, or 1:800 molar ratio in potassium phosphate buffer (50 mM, pH 7.4)/DMSO (99:1, v/v) at 298 K. The reactions were monitored by UV-Visible spectroscopy at ca. 343 nm. The kobs values were determined by fitting the experimental data to the first-order rate equation, [A]=[A]oe^−kt. The k2 value was determined by plotting kobs versus [H2O2] and the rate constant corresponds to the determined slope.
The change in absorption spectrum of metal complex of Formula (IV) (10 μM) in aerated potassium phosphate buffer (50 mM, pH 7.4)/DMSO (99:1, v/v) in the presence of H2O2(1 mM) at 298 K is shown in FIG. 3. […] The pseudo first-order rate constant (kobs) of reaction of metal complex of Formula (IV) (10 μM) was determined to be (0.6375±0.0092)×10^−3 s^−1. The plot of kobs of reactions of metal complex of Formula (IV) with H2O2 against various concentrations of H2O2 is shown in FIG. 4.

A short description of data set [3]: H2O2-sensing emission titration. The class given is physicochemical. Particulars: complex 10 μM, buffer pH 7.4/DMSO (99:1). As to the method: (§1) In H2O2-sensing studies, various amounts of H2O2 (25 mM; 0-20 μL) were added to a series of solutions containing metal complex of Formula (IV) (10 μM) in potassium phosphate buffer (50 mM, pH 7.4)/DMSO (99:1, v/v). The reaction mixtures were incubated in the dark at room temperature for 1.5 h, and their emission spectra were then measured. The limit of detection was determined according to the equation, […]. In the selectivity studies, different reactive oxygen species (100 μM) were added into a series of solutions containing metal complex of Formula (IV) (10 μM) in potassium phosphate buffer (50 mM, pH 7.4)/DMSO (99:1, v/v). The reaction mixtures were incubated in the dark at room temperature for 1.5 h, and their emission spectra were then measured. H2O2 was diluted from a stabilized 30% aqueous solution. TBHP was diluted from a 70% aqueous solution. NOC-7, KO2, and NaOCl were used as the sources of NO, O2^−, and ClO^−, respectively. Singlet oxygen (^1O2) was generated by the reaction of NaOCl and H2O2(Held, A M. Et al., Am. Chem. Soc., 1978, 100:5732-5740; Aubry, J M., J. Am. Chem. Soc., 1985, 107:5844-5849). Hydroxyl radicals (OH.) were generated by the reaction of ammonium iron(II) sulfate hexahydrate and H2O2.
The reactivity of metal complex of Formula (IV) with H2O2 was examined by emission titrations and the emission titration traces and corresponding titration curve are shown in FIGS. 5 and 6, respectively. […] The detection limit was calculated to be 1.84 μM.

Data set [4] can be described thus: Photophysical properties (emission, lifetime, luminescence quantum yield). The class given is physicochemical. Particulars: for Φem / λem / τo: 298 K. As to the method: ^1H NMR spectra were recorded on a Bruker 400 MHz AVANCE III spectrometer at 298 K using deuterated solvents. Chemical shifts (8, ppm) were reported relative to tetramethylsilane (TMS). Positive-ion electrospray ionization (ESI) mass spectra were recorded on a Perkin Elmer Sciex API 365 mass spectrometer at 298 K. IR spectra of the samples in KBr pellets were recorded in the range of 4000-400 cm^−1 using a Perkin Elmer FTIR-1600 spectrophotometer. Electronic absorption and steady-state emission spectra were recorded on a Hewlett-Packard 8453 diode array spectrophotometer and a SPEX Fluorolog 3-TCSPC spectrofluorometer, respectively. Emission lifetimes were measured in the Fast MCS or TCSPC mode with a NanoLED N-375 as the excitation source. Unless specified otherwise, all solutions for photophysical studies were degassed with no fewer than four successive freeze-pump-thaw cycles and stored in a 10 cm^3 round bottomed flask equipped with a side-arm 1-cm fluorescence cuvette and sealed from the atmosphere by a Rotaflo HP6/6 quick-release Teflon stopper. Luminescence quantum yields were measured by the optically dilute method (Demas, J N., Crosby, G A J., Phys. Chem., 1971, 75:991-1024) using a degassed CH3CN solution of [Re(phen)(CO)3(pyridine)](CF3SO3) (phen=1,10-phenanthroline) (φem=0.18, λex=355 nm) as the standard solution.
The photophysical data are summarized in Table 2, and the emission spectra of metal complex of Formula (IV) in CH3CN and aqueous buffer solutions at 298 K are shown in FIG. 2.

The nature of data set [5]: Selectivity study: emission response toward reactive oxygen species. It counts as physicochemical. The settings on record: complex 10 μM, buffer pH 7.4/DMSO (99:1), 1.5 h. As to the method:
as §1, with “H2O2. […]” for “H2O2.”

Data set [6] deals with HeLa cells. Nature of the data set: Cytotoxicity by MTT assay. The class given is cell-based. As to the method:
To confirm the suitability of the possibility of metal complex of Formula (IV) as phosphorescent sensor for intracellular H2O2, the cytotoxicity of metal complex of Formula (IV) was examined by the MTT assay.
HeLa cells were cultured in growth medium in a humidified chamber at 37° C. under a 5% CO2 atmosphere. The cells were subcultured every 2-3 days. HeLa cells were seeded in a 96-well flat-bottomed microplate (10,000 cells/well) in a growth medium (100 μL) and incubated at 37° C. under a 5% CO2 atmosphere for 24 h. […] The wells containing untreated cells were used as blank controls. […] Then MTT in PBS (5 mg/mL; 10 μL) was added to each well. The microplate was then incubated for another 4 h. The medium was removed and DMSO (200 μL) was added to each well. The microplate was further incubated for 10 min. The absorbance of the solutions at 570 nm was measured with a SPECTRAmax 340 microplate reader (Molecular Devices Corp., Sunnyvale, Calif.). Percentage cell survival was calculated relative to the absorbance of the control for each treatment. The viability of untreated cells was assumed to be 100%.
Background: Tetrazolium dyes change colour on reduction, which living cells bring about.

Data set [7] has as its system HeLa cells. Nature of the data set: Live-cell imaging by laser-scanning confocal microscopy (uptake, mitochondrial co-staining, intracellular H2O2). The class given is cell-based. As to the method: For co-staining experiments, HeLa cells in growth medium were seeded on a sterilized coverslip in a 35-mm tissue culture dish and grown at 37° C. under a 5% CO2 atmosphere for 48 h. The medium was removed and the cells were incubated with metal complex of Formula (IV) (10 μM) in growth medium/DMSO (99:1, v/v) for 40 min and then with MitoTracker Deep Red FM (100 nM) in a FBS-free medium for another 20 min. Prior to imaging, the cells were washed with PBS (1 mL×3), mounted onto a sterilized glass slide, and then imaged using a Leica TCS SPE confocal microscope with an oil immersion 63× objective. The excitation wavelength for metal complex of Formula (IV) was 405 nm and that of MitoTracker Deep Red FM was 633 nm. The Pearson's coefficient was determined by the program Image J (version 1.45k). For imaging of intracellular H2O2, HeLa cells in growth medium were seeded on a sterilized coverslip in a 35-mm tissue culture dish and grown at 37° C. under a 5% CO2 atmosphere for 48 h. The medium was removed and the cells were incubated with metal complex of Formula (IV) (10 μM) in growth medium/DMSO (99:1, v/v) for 1 h. The stained cells were washed with PBS (1 mL×3) and further treated with H2O2 (1 mM) in growth medium for another 2 h. Prior to imaging, the cells were washed with PBS (1 mL×3), mounted onto a sterilized glass slide, and then imaged using a Leica TCS SPE confocal microscope with an oil immersion 63× objective.
The use of metal complex of Formula (IV) for intracellular H2O2-sensing was evaluated by laser-scanning confocal microscopy. […] (FIG. 10D to 10F). This implies that the internalization of metal complex of Formula (IV) involved an energy-requiring pathway such as endocytosis.
With reference to FIG. 11A to 11C, the metal complex of Formula (IV) was localized in the mitochondria (Pearson's coefficient: 0.99).

[8] abbreviates: Potassium phosphate buffer (50 mM, pH 7.4)/MeOH (7:3, v/v).

For `O=S(=O)([O-])C(F)(F)F.[C-]#[O+].[C-]#[O+].[C-]#[O+].[Re+].c1ccncc1.c1cnc2c(c1)ccc1cccnc12` [[Re(phen)(CO)3(pyridine)](CF3SO3)], in data set [1], the “φem of standard solution” value was 0.18.
With “[Re(Ph2-phen)(CO)3(py-3-C(═O)C(═O)C6H3(NH2)(NO2)](CF3SO3) [Metal complex of Formula (IV)]”, the “pseudo first-order rate constant (kobs)” value in data set [2] (complex 10 μM, H2O2 (1 mM), aerated potassium phosphate buffer (50 mM, pH 7.4)/DMSO (99:1, v/v)) is “(0.6375±0.0092)×10^−3 s^−1”. The second-order rate constant in data set [2] (slope of kobs versus [H2O2], potassium phosphate buffer (50 mM, pH 7.4)/DMSO (99:1, v/v)) amounted to 0.7301 ± 0.0134 M⁻¹ s⁻¹. Moreover, the “emission enhancement (I/I0)” value in data set [3] ([H2O2]=250 μM, 1.5 h) is listed as 20.6. Besides, in data set [3], the “H2O2 concentration range of good linearity of emission intensity enhancement” value fell in the range of 0 to 50 µM and the “detection limit for H2O2” value is 1.84 µM. Besides, in data set [4] (CH3CN), the Φem is recorded as 0.007, the λem was determined as 554 nm and the τo turned out to be 4.83 μs. In addition, in data set [4] (setting [8]), the Φem came out at 0.005, the λem is 557 nm and the τo is 3.14 μs. The luminescence quantum yield in data set [4] (upon irradiation, very weak MLCT emission) is recorded as less than 0.007. Moreover, the “emission response toward H2O2” value in data set [5] (H2O2 100 μM) is on record as “significant emission enhancement”. Besides, the “emission response toward TBHP, 1O2, OH., NO, O2−, ClO−” value in data set [5] (ROS 100 μM) was “did not induce any significant changes in the emission intensity”. For the same compound, the “cytotoxic effect under imaging experiment conditions” value in data set [6] (10 μM, 1 h) is “would not cause significant cytotoxic effect”. In data set [6] (HeLa cells, 48 h, MTT), this compound returned an IC50 of 3.34 ± 0.05 µM. Further, the “emission intensity of the cells at lowered incubation temperature” value in data set [7] (HeLa cells, 10 μM, 1 h, 4° C.) is “significantly reduced”. Besides, in data set [7] (HeLa cells, 10 μM, 1 h, 37° C.), the intracellular emission result is given as “weak intracellular emission in the perinuclear region”. The “intracellular emission intensity after incubation with H2O2” value in data set [7] (complex-stained HeLa cells, H2O2 1 mM, 2 h) is “significantly enhanced”.

In general, IC50 refers to the concentration needed to halve the response being measured. A higher IC50 goes with lower potency.
